Measurements taken from PMC7878489, “Gene delivery corrects N-acetylglutamate synthase deficiency and enables insights in the physiological impact of L-arginine activation of N-acetylglutamate synthase” (Scientific Reports, 2021).

Key:
hNAGS (human NAGS) = target: T1, hNAGS (human NAGS) (Homo sapiens, UniProt Q8N159); test: NAGS specific activity; type: biochemical
T1 construct: appears to be tetramer
T1 sequence (Q8N159 51-534): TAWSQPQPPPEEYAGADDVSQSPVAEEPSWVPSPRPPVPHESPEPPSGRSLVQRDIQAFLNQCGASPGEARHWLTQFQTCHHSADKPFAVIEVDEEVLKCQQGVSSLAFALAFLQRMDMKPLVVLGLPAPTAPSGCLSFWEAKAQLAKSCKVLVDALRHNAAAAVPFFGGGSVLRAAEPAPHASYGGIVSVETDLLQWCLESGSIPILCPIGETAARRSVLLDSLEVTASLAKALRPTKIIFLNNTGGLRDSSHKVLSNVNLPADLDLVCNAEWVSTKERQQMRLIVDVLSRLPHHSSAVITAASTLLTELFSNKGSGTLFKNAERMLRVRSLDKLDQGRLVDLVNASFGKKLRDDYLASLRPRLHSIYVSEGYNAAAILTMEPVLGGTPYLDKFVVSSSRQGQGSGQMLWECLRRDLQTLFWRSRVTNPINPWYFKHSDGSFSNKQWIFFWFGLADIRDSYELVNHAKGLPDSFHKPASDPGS

mNAGS (mouse NAGS) = target: T2, mNAGS (mouse NAGS) (Mus musculus, UniProt Q8R4H7); test: NAGS specific activity; type: biochemical
T2 construct: appears to be tetramer
T2 sequence (Q8R4H7 51-527): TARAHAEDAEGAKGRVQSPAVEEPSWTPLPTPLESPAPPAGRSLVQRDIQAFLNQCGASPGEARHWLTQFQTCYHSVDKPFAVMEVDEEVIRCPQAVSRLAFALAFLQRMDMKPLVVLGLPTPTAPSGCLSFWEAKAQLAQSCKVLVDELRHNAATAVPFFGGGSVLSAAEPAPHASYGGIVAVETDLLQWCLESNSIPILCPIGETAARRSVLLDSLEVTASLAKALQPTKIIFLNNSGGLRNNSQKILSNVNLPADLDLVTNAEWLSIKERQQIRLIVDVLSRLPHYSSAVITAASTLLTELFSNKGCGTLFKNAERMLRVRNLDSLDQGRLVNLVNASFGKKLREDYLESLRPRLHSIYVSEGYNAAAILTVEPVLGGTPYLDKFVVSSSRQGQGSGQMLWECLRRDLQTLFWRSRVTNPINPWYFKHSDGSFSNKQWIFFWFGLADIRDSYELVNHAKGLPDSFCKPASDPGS

SMILES | NAGS specific activity (hNAGS (human NAGS); co-substrate acetyl coenzyme A) | NAGS specific activity (mNAGS (mouse NAGS); co-substrate acetyl coenzyme A) | NAGS specific activity (hNAGS (human NAGS); co-substrate glutamate) | NAGS specific activity (mNAGS (mouse NAGS); co-substrate glutamate)
N[C@@H](CCC(=O)O)C(=O)O [glutamate] | catalyzes formation of N-acetylglutamate (NAG) from glutamate and acetyl coenzyme A | catalyzes formation of N-acetylglutamate (NAG) from glutamate and acetyl coenzyme A | – | –
CC(=O)SCCNC(=O)CCNC(=O)[C@H](O)C(C)(C)COP(=O)(O)OP(=O)(O)OC[C@H]1O[C@@H](n2cnc3c(N)ncnc32)[C@H](O)[C@@H]1OP(=O)(O)O [acetyl coenzyme A] | – | – | catalyzes formation of N-acetylglutamate (NAG) from glutamate and acetyl coenzyme A | catalyzes formation of N-acetylglutamate (NAG) from glutamate and acetyl coenzyme A
